Consider 15 compounds from patent US20100234469A1, “New Crystals Of A Benzoylbenzeneacetamide Derivative” (Medichem, S.A., priority 2009, published 2010).

Assay type in all cases: physicochemical
The nature of series [1]: Particle size distribution (Malvern Mastersizer S). Particulars: for D[4,3]: mean diameter by volume; for DMVS (μm): Table 4, surface area mean diameter (D[3,2]). Here is the method:
The particle size for nepafenac was measured using a Malvern Mastersizer S particle size analyzer with an MS1-Small Volume Sample Dispersion Unit stirred cell. A 300RF mm lens and a beam length of 2.4 mm were used. Samples for analysis were prepared by wetting a weighed amount of nepafenac (approximately 50 mg) with 0.5 mL of a 1% solution of Igepal CA-630 in deionized water, and dispersing in 20 mL of deionized water. After sonication for 1 minute, the suspension was delivered drop-wise to the previously background and corrected measuring cell filled with dispersant (deionized water) until the obscuration reached the desired level. Volume distributions were obtained for three times. After completing the measurements, the sample cell was emptied and cleaned, refilled with suspending medium, and the sampling procedure repeated again. For characterization, the values of D10, D50 and D90 (by volume), D[4,3] (mean diameter by volume) and D[3,2] (mean diameter by surface area to volume, or Sauter diameter) were specifically listed, each one being the mean of the six values available for each characterization parameter.
The notation Dx means that X % of the particles have a diameter less than a specified diameter D. Thus a D90 [or D(v, 0.9)] of 100 μm means that 90% of the particles have a diameter less than 100 μm.

Series [2] in a line: Chargeability observed when handling crystals with a metallic material. The text has this:
Drug substances in solid form can suffer electrostatic charging by contact or friction electrification (tribocharging) caused by interactions among particles or between particles and the surfaces that contain them. These interactions can affect formulation, manufacture, powder flow, and packing behaviour. In addition, it has been reported that electrostatic charges are also responsible for problems in blend uniformity. The net positive or negative tendency of dry powders to become charged electrostatically is called chargeability.
There is no standard instrument for the measurement of the chargeability of dry powders (see AAPS PharmSciTech 2006, 7, Article 103). Triboelectric charge is commonly reported on a charge-to-mass basis since net charge and mass can be easily measured. However, triboelectric and induction charging are more closely related to the surface area of a particle rather to volume or mass. Then, it is well known that the surface area of the particles plays a key role in dry powder chargeability, and that therefore the particles having a higher specific surface area can hold a greater charge.

Series [3] in a line: Optical microscopy: crystal shape and aspect ratio. Particulars: for Crystal shape: optical microscopy, 40× magnification; for Aspect ratio: crystal length / width, average of at least 100 crystals. The text has this:
The “aspect ratio” of a crystal is defined as the ratio of its longest dimension to its shortest dimension. As used herein, “aspect ratio” is the quotient of the division of a crystal's length by its width. The aspect ratio of crystals can be obtained by taking micrographs of a batch of crystal (See General Experimental Conditions. Optical Microscopy).
The micrographs were taken at 40× magnification.
The aspect ratio of crystals was obtained from micrographs of a batch of crystal. Micrographs were processed with ImageJ 1.42q software. Length and width of at least 100 representative crystals (i.e., having an area greater than 500 μm^2 for a 40× magnification image) was measured, and the aspect ratio of each crystal was calculated by dividing the crystal length by the crystal width. The average aspect ratio for each batch was determined by dividing the sum of crystal aspect ratios by the number of crystals measured.

Series [4] is described as follows: Solubility of nepafenac at reflux temperature in crystallization solvent. The method, then:
General procedure: Nepafenac was dissolved under magnetical stirring and at reflux in a solvent (See Table 1). The solution was cooled to room temperature under stirring. The solid was filtered and dried. The different conditions and the obtained results are described in Table 1 below.

Series [5] is described as follows: BET specific surface area. Particulars: for Specific Surface Area (BET): N2 adsorption at 77 K; for Sw (m^2/g): Table 4, powder specific surface area. Here is the method:
The BET (Brunauer, Emmett and Teller) specific surface area for nepafenac was measured using a Micromeritics™ GEMINI V equipment (GEMINI CONFIRM V2.00 Software™). The sample for analysis was degassed at 30° C. for 10 minutes and at 140° C. for one hour. The determination of the adsorption of N2 at 77 K was measured for relative pressures in the range of 0.02 to 0.2 for a weighed amount of nepafenac (i.e., approximately 0.5 g).

The nature of series [6]: Flowability by Hausner ratio (tapped / bulk density). Particulars: micronized crystals. The method, then:
Flowability affects the ease with which the material is handled during processing into a pharmaceutical product. Namely, when flowability is very poor, problems occur with handling and processing during formulating. The flowability of nepafenac can be measured using the Hausner ratio, which is a value calculated by dividing the tapped bulk density of nepafenac by the freely settled bulk density of nepafenac. The freely settled bulk density is calculated by pouring a known weight of material into a measuring cylinder and recording the volume. The tapped density is calculated by tapping the cylinder against a surface for a specified number of times and recording again the new volume. See Henry H. Hausner, “Friction Conditions in a Mass of Metal Powders”, Int. J. Powder Metall. Vol. 3, 1967, pp 7-13.
A low Hausner ratio indicates a high flowability. […]
Measurement of Hausner ratio is well-known in the art and is described, for example, by Mersmann; Crystallization Technology Handbook (A. Mersmann, ed., 2nd Ed., Marcel Dekker). In the present invention, the bulk and tapped densities for each sample of nepafenac were determined using a TP-TD1 tapped densitometer from Pharma Test. The Hausner ratio of the nepafenac sample was calculated by dividing the tapped bulk density by the bulk density.

A short description of series [7]: Density by glass pycnometer in n-heptane. The conditions noted are these: Table 4, particle density. Here is the method: Density of nepafenac samples was determined at 25° C. using a 50 mL glass pycnometer. […] The density of the nepafenac sample (ρs) can be determined from the known density of n-heptane (ρH: 0.685 g/cm^3), the weight of the pycnometer filled only with n-heptane (WH^0, the weight of the filled pycnometer containing both nepafenac and n-heptane (WS+H), and the weight of nepafenac (WS):
Density of nepafenac samples was determined for three times, being the listed result the mean of the three values available for each sample.

Series [8] in a line: Sphericity factor calculation. The conditions noted are these: calculated from Sw, ρ and DMVS. The text has this: One of the most common ways of expressing the degree of irregularity of the particles is by means of the sphericity factor (ψw), which is generally defined as the ratio between the surface area of a sphere having the same volume as the particle and the surface area of the particle:
Because sphericity factors are not calculated for each particle but for an assembly of particles, they have to be based on an average size. Thus, the sphericity factor will then be given by the following equation: […]
where Sw is the powder specific surface area, ρ is the particle density and DMVS is the surface area mean diameter, also referred to as the mean volume-surface, the Sauter diameter or D[3,2]. The Sauter diameter is defined as the diameter of a sphere that has the same volume/surface area ratio as the particle of interest.
A sphericity factor of 1.0 describes a perfect sphere with the greatest ease of flow (Encapsulated and powdered foods, CRC Press 2005).

Where [9] appears, read: Table 3, micronized samples, unit inferred.

Values after ≈ are worked out from the molar mass of the structure shown. Like-named read-outs stand apart in the source and are kept apart here.

In series [1] (setting [9]), `NC(=O)Cc1cccc(C(=O)c2ccccc2)c1N` [Batch 1, 2-amino-3-benzoylbenzeneacetamide] had a D10 of 6.1 µm, a D50 of 21.4 µm and a D90 of 64.3 µm.
`NC(=O)Cc1cccc(C(=O)c2ccccc2)c1N` [Batch 2, 2-amino-3-benzoylbenzeneacetamide]: in series [1] (setting [9]), the D10 came to 4.8 µm, the D50 amounted to 19.8 µm and the D90 was 66.5 µm.
In series [1] (setting [9]), `NC(=O)Cc1cccc(C(=O)c2ccccc2)c1N` [Batch 3, 2-amino-3-benzoylbenzeneacetamide] had a D10 of 4.4 µm, a D50 of 14.9 µm and a D90 of 45.3 µm.
Turning to `NC(=O)Cc1cccc(C(=O)c2ccccc2)c1N` [Comparative Example 1, 2-amino-3-benzoylbenzeneacetamide, reference compound], the Chargeability entry in series [2] is “high chargeability”. In series [3], the Crystal shape entry is “needle-like shape”. The “solubility” value in series [4] (in 2-propanol at reflux temperature) worked out at 21.2 mg/mL (≈ 83.4 mM).
For the compound `NC(=O)Cc1cccc(C(=O)c2ccccc2)c1N` [Comparative Example 2, 2-amino-3-benzoylbenzeneacetamide, reference compound], in series [3], the Aspect ratio stood at 5.67 and the Crystal shape result is given as “Needle-like crystals”.
As to `NC(=O)Cc1cccc(C(=O)c2ccccc2)c1N` [Comparative Example 3, 2-amino-3-benzoylbenzeneacetamide, reference compound], in series [1] (by volume), the D10 came out at 23.6 μm, the D50 turned out to be 85.8 μm and the D90 is given as 491.1 μm. For the same compound, the “D[4,3]” value in series [1] (unit not given, in µm (unit assumed)) came out at 178.4. Further, the Crystal shape result in series [3] is “Needle-like crystals”. In addition, the “Specific Surface Area (BET)” value in series [5] is reported as 0.8256±0.0270 m^2/g.
For `NC(=O)Cc1cccc(C(=O)c2ccccc2)c1N` [Example 1, 2-amino-3-benzoylbenzeneacetamide], in series [3], the Aspect ratio worked out at 3.04 and the Crystal shape entry is listed as “Plate”. Moreover, the solubility in series [4] (2-propanol:water 90:10, organic solvent or mixture, thermodynamic from solid, in 2-propanol:water 90:10 at reflux, read-out: Solubility) was determined as 55.2 mg/mL (≈ 217 mM).
In the case of `NC(=O)Cc1cccc(C(=O)c2ccccc2)c1N` [Example 2, 2-amino-3-benzoylbenzeneacetamide], the Crystal shape entry in series [3] is “Plate”. For the same compound, the solubility in series [4] (2-propanol:water 80:20, organic solvent or mixture, thermodynamic from solid, in 2-propanol:water 80:20 at reflux, read-out: Solubility) is 78.6 mg/mL (≈ 309 mM).
Consider `NC(=O)Cc1cccc(C(=O)c2ccccc2)c1N` [Example 3, 2-amino-3-benzoylbenzeneacetamide], for which the Crystal shape entry in series [3] is “Plate”. Further, the solubility in series [4] (2-propanol:water 70:30, organic solvent or mixture, thermodynamic from solid, in 2-propanol:water 70:30 at reflux, read-out: Solubility) was 79.6 mg/mL (≈ 313 mM).
On to `NC(=O)Cc1cccc(C(=O)c2ccccc2)c1N` [Example 4, 2-amino-3-benzoylbenzeneacetamide], for which the Crystal shape result in series [3] is on record as “Plate”. Moreover, in series [4] (2-propanol:water 60:40, organic solvent or mixture, thermodynamic from solid, in 2-propanol:water 60:40 at reflux, read-out: Solubility), the solubility amounted to 32.6 mg/mL (≈ 128 mM).
As to `NC(=O)Cc1cccc(C(=O)c2ccccc2)c1N` [Example 5, 2-amino-3-benzoylbenzeneacetamide], the Chargeability result in series [2] was “Reduced chargeability”. Besides, the Crystal shape result in series [3] is listed as “plate-like shape”.
In series [1] (by volume), `NC(=O)Cc1cccc(C(=O)c2ccccc2)c1N` [Example 6, 2-amino-3-benzoylbenzeneacetamide] displayed a D10 of 30.5 μm, a D50 of 144.9 μm and a D90 of 401.8 μm. Also, the “D[4,3]” value in series [1] turned out to be 185.0 μm. In addition, the Crystal shape entry in series [3] is “plate-like crystals”. The “Specific Surface Area (BET)” value in series [5] is reported as 0.7046±0.0272 m^2/g.
In series [1] (by volume), `NC(=O)Cc1cccc(C(=O)c2ccccc2)c1N` [Example 7, 2-amino-3-benzoylbenzeneacetamide, reference compound] gave a D10 of 1.3 μm, a D50 of 6.1 μm and a D90 of 17.1 μm.
For the compound `NC(=O)Cc1cccc(C(=O)c2ccccc2)c1N` [Example 8, 2-amino-3-benzoylbenzeneacetamide], the Hausner ratio in series [6] was determined as 1.43. Also, the “ρ” value in series [7] was found to be 1.33 g/mL. Further, the “DMVS (μm)” value in series [1] amounted to 2.5 μm. In series [1] (by volume), this compound showed a D10 of 1.2 μm, a D50 of 5.8 μm and a D90 of 18.9 μm. Besides, the “Ψw (sphericity factor)” value in series [8] is on record as 1.0. For the same compound, the “Sw (m^2/g)” value in series [5] was 1.7686 ± 0.0242 m^2/g.
Take `NC(=O)Cc1cccc(C(=O)c2ccccc2)c1N` [Example 10, 2-amino-3-benzoylbenzeneacetamide]: the “ρ” value in series [7] came to 1.33 g/mL. For the same compound, in series [1], the “DMVS (μm)” value came out at 2.7 μm. In series [1] (by volume), this compound had a D10 of 2.2 μm, a D50 of 12.1 μm and a D90 of 27.5 μm. In addition, in series [1] (mean diameter by surface area to volume (Sauter diameter)), the “D[3,2]” value was 2.7 μm. Also, the “Ψw (sphericity factor)” value in series [8] is 0.82. Also, the “Sw (m^2/g)” value in series [5] turned out to be 2.0341 ± 0.0074 m^2/g.
